Measurements reported in the NIST ThermoML archive (doi:10.1021/je300632p).

Assay: xn = mol fraction of the nth substance listed
Conditions: 101 kPa, Liquid; for viscosity: Falling or rolling sphere viscometry; for mass density: Vibrating tube method

CCCO [propan-1-ol] + CCO
Conditions | mass density, 313.15 K [kg/m3] | mass density, 318.15 K [kg/m3] | mass density, 323.15 K [kg/m3] | mass density, 328.15 K [kg/m3] | viscosity, 313.15 K [mPa·s] | viscosity, 318.15 K [mPa·s] | viscosity, 323.15 K [mPa·s] | viscosity, 328.15 K [mPa·s]
x2 = 0 | 787.44 | 783.3 | 779.11 | 774.86 | 1.352 | 1.214 | 1.093 | 0.986
x2 = 0.1 | 785.86 | 781.7 | 777.49 | 773.22 | 1.297 | 1.167 | 1.053 | 0.953
x2 = 0.2 | 784.66 | 780.48 | 776.24 | 771.95 | 1.239 | 1.118 | 1.012 | 0.919
x2 = 0.301 | 783.29 | 779.09 | 774.83 | 770.52 | 1.188 | 1.074 | 0.973 | 0.884
x2 = 0.4 | 781.9 | 777.68 | 773.39 | 769.06 | 1.107 | 1.003 | 0.911 | 0.829
x2 = 0.5 | 780.71 | 776.45 | 772.14 | 767.78 | 1.051 | 0.954 | 0.867 | 0.79
x2 = 0.599 | 779.16 | 774.88 | 770.54 | 766.15 | 1.007 | 0.916 | 0.835 | 0.763
x2 = 0.701 | 777.53 | 773.22 | 768.85 | 764.43 | 0.952 | 0.867 | 0.792 | 0.725
x2 = 0.8 | 775.91 | 771.56 | 767.16 | 762.71 | 0.901 | 0.823 | 0.753 | 0.69
x2 = 0.9 | 774.33 | 769.95 | 765.52 | 761.02 | 0.852 | 0.78 | 0.715 | 0.657
